From US20100061994A1, “MEDICAL USES OF 39-DESMETHOXYRAPAMYCIN AND ANALOGUES THEREOF” (priority 2005, published 2010) come the findings set out here.

Several values for one entry are separate records, joined by “and”; a condition that tells them apart may be missing. Identical values can stand only once. Like-named read-outs stand apart in the source and are kept apart here.

By Kd is commonly meant the constant that tells how readily two partners part at equilibrium. One may read the Papp as the rate of passage across a membrane or cell layer, normalised by area and donor concentration. Read a low Papp as slow passage. As usually defined, the efflux ratio is the permeability from basolateral to apical divided by that in the opposite direction, in the common usage. As usually defined, the Kp is tissue or fluid exposure divided by exposure in the circulation. By AUC is commonly meant the area under the concentration-time curve, a measure of exposure. Read a low AUC as low exposure.

One series deals with Caco-2 cells. As to the kind of experiment: Caco-2 permeation assay. The note with it: 0.01 mM.
Series [1] can be described thus: Human Liver Microsomal (HLM) stability assay. In kind it is in vitro ADME. Conditions: 0.001 mM, 0.25 mg/mL protein, NADPH, 37° C. As to the method:
Liver homogenates provide a measure of a compounds inherent vulnerability to Phase I (oxidative) enzymes, including CYP450s (e.g. CYP2C8, CYP2D6, CYP1A, CYP3A4, CYP2E1), esterases, amidases and flavin monooxygenases (FMOs).
The half life (T½) of test compounds was determined, on exposure to Human Liver Microsomes, by monitoring their disappearance over time by LC-MS. Compounds at 0.001 mM were incubated at for 40 min at 37° C., 0.1 M Tris-HCl, pH 7.4 with human microsomal sub-cellular fraction of liver at 0.25 mg/mL protein and saturating levels of NADPH as co-factor. At timed intervals, acetonitrile was added to test samples to precipitate protein and stop metabolism. Samples were centrifuged and analysed for parent compound using analytical Method A (see Materials & Methods).
(Liver microsomes are a subcellular fraction often used to study metabolism.)

A further series has as its target FKBP12 (Homo sapiens, UniProt P62942). As to the kind of experiment: In vitro FKBP12 binding assay (GdnHCl unfolding). An excerpt: FKBP12 reversibly unfolds in the chemical denaturant guandinium hydrochloride (GdnHCl) and the unfolding can be monitored by the change in the intrinsic fluorescence of the protein (Main et al, 1998). Ligands which specifically bind and stabilise the native state of FKBP12 shift the denaturation curve such that the protein unfolds at higher concentrations of chemical denaturant (Main et al, 1999). From the difference in stability, the ligand-binding constant can be determined using equation 1.
where ΔGapp is the apparent difference in free energy of unfolding between free and ligand-bound forms, ΔGD−N^H^2^O is the free energy of unfolding in water of free protein, [L] the concentration of ligand and kd the dissociation constant for the protein-ligand complex (Meiering et al, 1992). The free energy of unfolding can be related to the midpoint of the unfolding transition using the following equation: […]
where mD−N is a constant for a given protein and given denaturant and which is proportional to the change in degree of exposure of residues on unfolding (Tanford 1968 and Tanford 1970), and [D]50% is the concentration of denaturant corresponding to the midpoint of unfolding.
where <mD−N> is the average m-value of the unfolding transition and Δ[D]50% the difference in midpoints for the rapamycin-FKBP12 unfolding transition and unknown-ligand-FKBP12 complex unfolding transition. Under conditions where [L]>Kd, then, ΔΔGD−N, can be related to the relative Kds of the two compounds through equation 4: […]

A further series can be described thus: Caco-2 permeation assay. Conditions: human, Caco-2, pH 7.4. (Caco-2 cells form a polarised layer with tight junctions and transporters.)
Series [2] in a line: Pharmacokinetic analysis Protocol 1 (blood and brain). Conditions: female, CD1, mouse, 3 mg/kg.
Protocol: The test compounds were prepared in a vehicle consisting of 4% Ethanol, 5% Tween-20, 5% polyethyleneglycol 400 in 0.15M NaCl. A single dbse of 10 mg/kg p.o. or 3 mg/kg i.v. was administered to groups of female CD1 mice (3 mice for each compound per time point). At 0 min, 4 min, 15 min, 1 h, 4 h, and 24 h groups were sacrificed and the blood and the brain were collected from each mouse for further analysis.
The brain samples were snap frozen in liquid nitrogen and stored at −20° C. A minimum of 0.2 mL of whole blood from each animal was collected in tubes containing ethylene diamine tetra-acetic acid (EDTA) as anticoagulant, thoroughly mixed, and stored at −20° C.
Analysis was performed by ASI Limited, (St George's Hospital Medical School, London). The concentration of the test compound in the blood and brain samples supplied was determined by HPLC with MS detection. Control, test compound free, blood samples were obtained from Harlan Sera-Lab Limited, (Loughborough, England). Time zero brain samples were supplied as control, test compound free, brain samples.
One hemisphere of each brain was homogenized with 5 mL water.
The control or test sample of mouse brain or blood (0.05 mL), internal standard solution (0.1 mL), 5% Zinc sulphate solution (0.5 mL), and acetone (0.5 mL) were pipetted into a 2 mL polypropylene tube (Sarstedt Limited, Beaumont Leys, Leicester, UK) and the contents were then mixed for a minimum of 5 minutes (IKA-Vibrax-VXR mixer, Merck (BDH) Limited, Poole Dorset, UK). The tubes were then centrifuged in a microfuge for a minimum of 2 minutes. The solvent layer was decanted into a 4.5 mL polypropylene tube containing sodium hydroxide (0.1M, 0.1 mL) and methyl-tert-butyl ether (MTBE, 2 mL). The tube was then mixed for a minimum of 5 minutes (IKA-Vibrax-VXR mixer) and then centrifuged at 3500 rpm for 5 minutes. The solvent layer was transferred to a 4.5 mL conical polypropylene tube, placed in a SpeedVac® and evaporated to dryness.
The dried extracts were reconstituted with 0.15 mL 80% methanol and mixed for a minimum of 5 minutes (IKA-Vibrax-VXR mixer) and centrifuged at 3500 rpm for 5 minutes. The extract was transferred to auto sampler tubes (NLG Analytical, Adelphi Mill, Bollington, Cheshire, UK) and placed into the auto-sampler tray which was set at ambient temperature. The auto-sampler was programmed to inject a 0.03 mL aliquot of each extract onto the analytical column.
The AUC for each compound in blood or in brain tissue was calculated using Kinetica 4.4 (InnaPhase Corporation), using a non-compartmental model and the trapezoidal method for AUC calculation.
The partition coefficient (Ri) for each compound after p.o. and i.v. administration was calculated as shown below:
The partition coefficient (R) for each compound after i.v. administration was calculated as shown below:
A further series deals with EAE. The series can be described thus: Experimental allergic encephalomyelitis (EAE) model of multiple sclerosis. Type of series: in vivo, male Lewis rats. The note with it: rat, in vivo.
The mark [3] stands for this setting: relative to literature Kd of rapamycin 0.2 nM.

FKBP12, sequence (P62942 whole entry, species assumed): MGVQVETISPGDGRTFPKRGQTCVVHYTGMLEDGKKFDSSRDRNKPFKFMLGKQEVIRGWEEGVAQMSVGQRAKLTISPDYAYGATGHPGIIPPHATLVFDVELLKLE
Protocol for Caco-2 cells: Confluent Caco-2 cells (Li, A. P., 1992; Grass, G. M., et al., 1992, Volpe, D. A., et al., 2001) in a 24 well Corning Costar Transwell format were provided by In Vitro Technologies Inc. (IVT Inc., Baltimore, Md., USA). The apical chamber contained 0.15 mL Hank's balanced buffer solution (HBBS) pH 7.4, 1% DMSO, 0.1 mM Lucifer Yellow. The basal chamber contained 0.6 mL HBBS pH 7.4, 1% DMSO. Controls and tests were incubated at 37° C. in a humidified incubator, shaken at 130 rpm for 1 h. Lucifer Yellow permeates via the paracellular (between the tight junctions) route only, a high Apparent Permeability (Papp) for Lucifer Yellow indicates cellular damage during assay and all such wells were rejected. […] Compounds were tested in a uni- and bi-directional format by applying compound to the apical or basal chamber (at 0.01 mM). Compounds in the apical or basal chambers were analysed by HPLC-MS (Method A, see Materials & Methods). Results were expressed as Apparent Permeability, Papp, (nm/s) and as the Flux Ratio (A to B versus B to A).
[formula] • Volume Acceptor: 0.6 ml (A>B) and 0.15 ml (B>A) • Area of monolayer: 0.33 cm2 • Δtime: 60 min
A positive value for the Flux Ratio indicates active efflux from the apical surface of the cells.

Consider “16-O-desmethyl-27-O-desmethyl-39-desmethoxyrapamycin”, for which the “Caco-2: Efflux Ratio” value in the series with Caco-2 cells (bi-directional format) was 37. Further, the “Caco-2: Papp” value with Caco-2 cells (pH 7.4, 1 h) came out at 1.3 ×10⁻⁶ cm/s. Moreover, the “HLM stability: T½ min” value in series [1] is 47 min. Also, at FKBP12 (setting [3]), the Kd stood at 101 nM.

For the compound `CO[C@H]1CC2CC[C@@H](C)[C@@](O)(O2)C(=O)C(=O)N2CCCC[C@H]2C(=O)O[C@H]([C@@H](C)CC2CCC(O)CC2)CC(=O)[C@@H](C)/C=C(\C)[C@H](O)[C@H](O)C(=O)[C@@H](C)C[C@H](C)/C=C/C=C/C=C/1C` (some centres unmarked) [27-O-desmethyl-39-desmethoxyrapamycin], in “Caco-2 permeation assay”, the Papp at 1 h, 0.01 mM came to 0.4 ×10⁻⁶ cm/s and the efflux ratio at 1 h, 0.01 mM is 91. Besides, the half-life at 0.001 mM in series [1] (human, liver microsomes, pH 7.4, read-out: HLM stability: T½ min) amounted to 27 min. This compound also showed a Kp in series [2] (brain / whole blood, intravenous) of 4.56. Moreover, the exposure (AUC) in series [2] (whole blood, iv) came out at 1850 ng·h/mL. The compound also had a Kd at FKBP12 (setting [3]) of 0.8 nM.

For the compound `COC1CC2CCC(C)C(O)(O2)C(=O)C(=O)N2CCCCC2C(=O)OC(C(C)CC2CCC(O)CC2)CC(=O)C(C)C=C(C)C(O)CC(=O)C(C)CC(C)C=CC=CC=C1C` (centres unmarked) [27-desmethoxy-39-desmethoxy rapamycin], the Kd at FKBP12 amounted to 160 nM.

As for `O=P1(N(CCCl)CCCl)NCCCO1` (centres unmarked) [Cyclophosphamide, reference compound], in the series with EAE, the “Cumulative score Mean ± St Dev.” value was 33 ± 14.1 and 37 ± 26.6; the “Duration (days) Mean ± St Dev.” value was 13 ± 3.4 days and 15 ± 3.2 days; the “Onset Mean ± St Dev.” value is 13 ± 2.6 and 11 ± 1.1.
